Assays:
[1] = tested on: recent-onset RA patients; assay: Clinical response to methotrexate monotherapy (DAS) in genotyped patients of the BeSt trial; assay type: in vivo, human; conditions: for Good clinical response at six months, number of patients / Good clinical response at six months, percentage of patients: DAS≦2.4
Source text: The 247 patients enrolled in the study was a sub-cohort of 508 patients participating in the BeSt trial (25). Inclusion criteria for this trial were fulfilment of the American College of Rheumatology (ACR) 1987 criteria, age of 18 years or older, a disease duration of less than 2 years. All patients had to have an active disease defined as ≧6/66 swollen joints and ≧6/68 tender joints and either an ESR ≧28 mm/hr or a Visual Analogue Scale (VAS) for global health ≦20 mm (on a scale of 0-100, 0=worst, 100=best).
The BeSt trial is a randomized, multi-centre, single-blinded, clinical study comparing the clinical efficacy of four different treatment strategies in early rheumatoid arthritis; sequential monotherapy (n=126 starting with methotrexate), step-up to combination therapy with sulphasalazine (n=121 starting with methotrexate), initial combination therapy with methotrexate, sulphasalazine and a high tapered dose of prednisolone (n=133) or initial biologic therapy with infliximab and methotrexate (n=128). In the present study, only patients allocated to initial single use of methotrexate were selected (n=247).
The primary objective of treatment in the BeSt study was achieving good clinical response as defined by the DAS≦2.4 (26-28). The DAS is a validated composite outcome measure consisting of the Ritchie articular index (RAI), the number of swollen joints (SJC, out of 44), general well being as indicated by the patient on a visual analogue scale (VAS), and the Erythrocyte Sedimentation Rate (ESR). A research nurse who remained blinded for the allocated treatment group scored the DAS every three months.
All selected patients started with oral methotrexate 7.5 mg weekly, increased to 15 mg weekly after 4 weeks, combined with folic acid (1 mg per day). In case of insufficient clinical response at three months of follow-up (DAS>2.4), the dosage was increased stepwise to 25 mg weekly, either orally or parenterally as decided by the rheumatologist. If the clinical response remained insufficient with methotrexate 25 mg weekly, patients were treated according to the next step of the BeSt protocol; patients with methotrexate sequential monotherapy switched to sulphasalazine 1000 mg twice daily; patients with initial step-up combination therapy, sulphasalazine 1000 mg twice daily was added to methotrexate. Concomitant therapies with nonsteroidal anti-inflammatory drugs (NSAIDs), as well as intra-articular injections with corticosteroids, were allowed for all treatment groups. For current analysis, clinical data for the first six months of follow-up were used, representing methotrexate treatment only.
“Responders” were defined as patients with DAS ≦2.4 (good clinical response) based on EULAR response criteria (26-28) and ‘non-responders ’ as patients with DAS >2.4 at six months of follow up.
Differences in baseline characteristics were analysed by Student's t-test for continuous variables or Chi-square test for dichotomous variables. Differences in genotype distribution for response and toxicity were tested by 3 by 2 cross tabs for each genotype, and by 2 by 2 cross tabs for carriers versus non-carriers analysis with the two-sided Chi-square test. We used binary logistic analysis in case of differences in genotype distribution, to calculate odds ratios for achieving good response or experiencing adverse drug events. Age and gender were identified as possible confounders and were used as covariates in all regression analyses. The primary efficacy endpoint was good clinical response at six months (DAS≦2.4). DAS good clinical response status required patients to be present at a given time point; no values were carried forward. Secondary endpoints were good clinical improvement defined as change in DAS>1.2 (ΔDAS>1.2) and moderate clinical improvement defined as change in DAS>0.6 (ΔDAS>0.6). […]

[2] = tested on: Rheumatoid arthritis (RA) patients; conditions: literature refs 7-9; cited from earlier work

CN(Cc1cnc2nc(N)nc(N)c2n1)c1ccc(C(=O)N[C@@H](CCC(=O)O)C(=O)O)cc1 [methotrexate]
Good clinical response, Methotrexate 15 mg weekly, number of responders/patients ([1]; AMPD1 CC genotype, six months): 25/36
Good clinical response, Methotrexate 15 mg weekly, percentage ([1]; AMPD1 CC genotype, six months): (69%)
Good clinical response, Methotrexate 25 mg weekly, number of responders/patients ([1]; AMPD1 CC genotype, six months): 30/98
Good clinical response, Methotrexate 25 mg weekly, percentage ([1]; AMPD1 CC genotype, six months): (31%)
Good clinical response at six months, number of patients ([1]; AMPD1 CC genotype): 57
Good clinical response at six months, percentage of patients ([1]; AMPD1 CC genotype): (38%)
good clinical response percentage at 6 months ([1]; AMPD1 CC genotyped patients): 42%
Good clinical response, Methotrexate 15 mg weekly, number of responders/patients ([1]; AMPD1 CT genotype, six months): 15/15
Good clinical response, Methotrexate 15 mg weekly, percentage ([1]; AMPD1 CT genotype, six months): (100%)
Good clinical response, Methotrexate 25 mg weekly, number of responders/patients ([1]; AMPD1 CT genotype, six months): 13/29
Good clinical response, Methotrexate 25 mg weekly, percentage ([1]; AMPD1 CT genotype, six months): (45%)
Good clinical response at six months, number of patients ([1]; AMPD1 CT genotype): 28
Good clinical response at six months, percentage of patients ([1]; AMPD1 CT genotype): (56%)
percentage of good clinical response at six months ([1]; AMPD1 T-allele and ATIC CC (n=22)): 68
percentage of good clinical response at six months ([1]; AMPD1 T-allele and ITPA CC (n=41)): 63
times more likely to achieve good clinical response ([1]; AMPD1 T-allele carriers compared to AMPD1 CC, six months): 2.1 times
good clinical response percentage at 6 months ([1]; AMPD1 T-allelic carriers): 60%
Good clinical response, Methotrexate 15 mg weekly, number of responders/patients ([1]; AMPD1 TT genotype, six months): 1/1
Good clinical response, Methotrexate 15 mg weekly, percentage ([1]; AMPD1 TT genotype, six months): (100%)
Good clinical response, Methotrexate 25 mg weekly, number of responders/patients ([1]; AMPD1 TT genotype, six months): 0/2
Good clinical response, Methotrexate 25 mg weekly, percentage ([1]; AMPD1 TT genotype, six months): (0%)
Good clinical response at six months, number of patients ([1]; AMPD1 TT genotype): 1
Good clinical response at six months, percentage of patients ([1]; AMPD1 TT genotype): (33%)
percentage of good clinical response at six months ([1]; ATIC CC and ITPA CC (n=82)): 56
patients in remission (DAS <1.6) at one-year of follow-up ([1]; ATIC CC genotype (n=97)): 35%
Good clinical response, Methotrexate 15 mg weekly, number of responders/patients ([1]; ATIC CC genotype, six months): 22/25
Good clinical response, Methotrexate 15 mg weekly, percentage ([1]; ATIC CC genotype, six months): (88%)
Good clinical response, Methotrexate 25 mg weekly, number of responders/patients ([1]; ATIC CC genotype, six months): 28/61
Good clinical response, Methotrexate 25 mg weekly, percentage ([1]; ATIC CC genotype, six months): (46%)
Good clinical response at six months, number of patients ([1]; ATIC CC genotype): 51
Good clinical response at six months, percentage of patients ([1]; ATIC CC genotype): (53%)
good clinical response percentage at 6 months ([1]; ATIC CC patients): 58%
Good clinical response, Methotrexate 15 mg weekly, number of responders/patients ([1]; ATIC CG genotype, six months): 15/22
Good clinical response, Methotrexate 15 mg weekly, percentage ([1]; ATIC CG genotype, six months): (68%)
Good clinical response, Methotrexate 25 mg weekly, number of responders/patients ([1]; ATIC CG genotype, six months): 14/60
Good clinical response, Methotrexate 25 mg weekly, percentage ([1]; ATIC CG genotype, six months): (23%)
Good clinical response at six months, number of patients ([1]; ATIC CG genotype): 30
Good clinical response at six months, percentage of patients ([1]; ATIC CG genotype): (33%)
good clinical response percentage at 6 months ([1]; ATIC G-allelic carriers): 37%
Good clinical response, Methotrexate 15 mg weekly, number of responders/patients ([1]; ATIC GG genotype, six months): 4/5
Good clinical response, Methotrexate 15 mg weekly, percentage ([1]; ATIC GG genotype, six months): (80%)
Good clinical response, Methotrexate 25 mg weekly, number of responders/patients ([1]; ATIC GG genotype, six months): 2/9
Good clinical response, Methotrexate 25 mg weekly, percentage ([1]; ATIC GG genotype, six months): (22%)
Good clinical response at six months, number of patients ([1]; ATIC GG genotype): 6
Good clinical response at six months, percentage of patients ([1]; ATIC GG genotype): (38%)
good clinical response percentage at 6 months ([1]; ITPA A-allelic carriers): 26%
Good clinical response, Methotrexate 15 mg weekly, number of responders/patients ([1]; ITPA CA genotype, six months): 3/5
Good clinical response, Methotrexate 15 mg weekly, percentage ([1]; ITPA CA genotype, six months): (60%)
Good clinical response, Methotrexate 25 mg weekly, number of responders/patients ([1]; ITPA CA genotype, six months): 4/22
Good clinical response, Methotrexate 25 mg weekly, percentage ([1]; ITPA CA genotype, six months): (18%)
Good clinical response at six months, number of patients ([1]; ITPA CA genotype): 7
Good clinical response at six months, percentage of patients ([1]; ITPA CA genotype): (23%)
Good clinical response, Methotrexate 15 mg weekly, number of responders/patients ([1]; ITPA CC genotype, six months): 38/47
Good clinical response, Methotrexate 15 mg weekly, percentage ([1]; ITPA CC genotype, six months): (81%)
Good clinical response, Methotrexate 25 mg weekly, number of responders/patients ([1]; ITPA CC genotype, six months): 39/107
Good clinical response, Methotrexate 25 mg weekly, percentage ([1]; ITPA CC genotype, six months): (36%)
Good clinical response at six months, number of patients ([1]; ITPA CC genotype): 79
Good clinical response at six months, percentage of patients ([1]; ITPA CC genotype): (45%)
good clinical response percentage at 6 months ([1]; ITPA CC genotyped): 50%
percentage responders (DAS≦2.4) at six months ([1]; overall population): 47%
response rate at six months ([1]; patients carrying all the favourable genotypes (n=16)): 88%
odds ratio for achieving good clinical response ([1]; patients carrying all the favourable genotypes (n=16), logistic regression): 27.8
response rate at six months ([1]; patients carrying all three unfavourable genotypes (n=10)): 10%
patients showing good clinical response [2]: about 40%
